# Assay results as given in US5340925A, “Normal human growth regulatory receptor for TGF-β” (Oncogen, priority 1992, dated 1994).
# Read-outs that look alike come from different tables or passages of the source.
# Legend:
# [1] = test system: HEPM cells; assay: Growth stimulation assay: incorporation of 5-[125I]iodo-2'-deoxyuridine into DNA of quiescent HEPM cells; type: cell-based, human; conditions: 66 h + 6 h radionuclide label
# Method: FIGS. 1(A) and 1(B) Bioactivity of TGF-β on HEPM cells: incorporation of radionuclide into DNA. Results are presented as percent stimulation vs the picomolar (pM) concentration of TGF-β. Percent stimulation was calculated as follows: treated (cpm)-untreated (cpm)/untreated (cpm) x 100. Panel A: TGF-β1, treatment. Panel B: TGF-β2 treatment.
# HEPM cells (5,000 cells/50 μl ) were subcultured in 96-well tissue culture plates (Falcon 30072) in growth medium comprising minimal essential medium (Gibco, Grand Island, N.Y.) supplemented with 10% heat-inactivated fetal bovine serum, 600 μg/ml L-glutamine, 500 μg/ml penicillin and 500 μg/ml streptomycin for a 24-hour period at 37° C. in a humidified 5% CO2 /95% air atosphere. A nondividing, quiescent state of growth was achieved by subsequent incubation for 48 hours in growth medium supplemented with 0.5% fetal bovine serum. Quiescent cells were then stimulated to proliferate by the addition of fetal bovine serum (10 μl ) and test samples of TGF-β1, or TGF-β2 (50 μl). The cells were incubated an additional 66 hours at 37° C. […] The amount of cell growth was measured by the amount of radionuclide incorporated into the DNA of actively growing cells.
# [2] = test system: HEPM cell-surface receptors for TGF-β; assay: Radioreceptor assay: [125I]-iodo-TGF-β1 in competition with unlabeled TGF-β1, Scatchard analysis; type: binding, human; conditions: comparison of growth stimulation and receptor occupancy, FIG. 6
# Method: (§1) HEPM cells were grown to confluence (1×10^5 cells/well) in 24-well Costar tissue culture plates. Prior to the binding assay, cells were pre-incubated in serum-free growth medium at 37° C. for 4 hours to allow for the dissociation of TGF-β from occupied cells surface receptors. The resulting monolayers were washed 2 times in binding buffer (Dulbecco's MEM+0.1% BSA+25 mM HEPES). 250 μl of binding buffer containing 0.5 μg/ml [^125 I]-iodoTGF-β1, (specific activity of 100 μCi/μg) together with increasing amounts of unlabeled TGF-β1 were added to duplicate wells. Steady state binding was carried out at 4° C. for 3 hours. After incubation cells were washed 3 times with cold binding buffer and solubilized in 200 μl of Triton solution (20 mM HEPES, 1% Triton X-100, 10% glycerol, 0.01% BSA, pH 7.4). Radioactivity was determined using a gamma spectrometer. Non-specific binding was determined in the presence of a 1,000-fold molar excess unlabeled TGF-β1.
# (§2) The radioreceptor assay described in Materials and Methods was used to characterize the affinity and number of cell-surface receptors for TGF-β on HEPM cells. Specific binding of [^125 I]-iodo-TGF-βin these assays was 20% of the total radioligand present. […] Half-maximal displacement of radioligand occurred at 100 pM (2.6 ng/ml) unlabeled TGF-β1. Competitive binding data were plotted according to the method of Scatchard (Scatchard, et al., 1947, Ann. NY Acad Sci 51:660-672) and the results are presented in FIG. 5. A distinctly curvilinear isotherm was obtained indicating the presence of at least two classes of binding sites on HEPM cells. […] Quantitative analysis determined that HEPM cells contain a total of 287,000 TGF-β receptors per cell (55,400 high affinity and 231,600 low affinity sites).
# [3] = biological target: T1, HEPM cell-surface receptors for TGF-β (Homo sapiens, UniProt Q03167); assay: as above; type: binding; conditions: for Kd: untreated HEPM cells, Scatchard two-site model
# T1 construct: endogenous in cells; host or cells: HEPM (human embryonic palatal mesenchyme) cells, intact monolayers
# T1 sequence (Q03167 21-851): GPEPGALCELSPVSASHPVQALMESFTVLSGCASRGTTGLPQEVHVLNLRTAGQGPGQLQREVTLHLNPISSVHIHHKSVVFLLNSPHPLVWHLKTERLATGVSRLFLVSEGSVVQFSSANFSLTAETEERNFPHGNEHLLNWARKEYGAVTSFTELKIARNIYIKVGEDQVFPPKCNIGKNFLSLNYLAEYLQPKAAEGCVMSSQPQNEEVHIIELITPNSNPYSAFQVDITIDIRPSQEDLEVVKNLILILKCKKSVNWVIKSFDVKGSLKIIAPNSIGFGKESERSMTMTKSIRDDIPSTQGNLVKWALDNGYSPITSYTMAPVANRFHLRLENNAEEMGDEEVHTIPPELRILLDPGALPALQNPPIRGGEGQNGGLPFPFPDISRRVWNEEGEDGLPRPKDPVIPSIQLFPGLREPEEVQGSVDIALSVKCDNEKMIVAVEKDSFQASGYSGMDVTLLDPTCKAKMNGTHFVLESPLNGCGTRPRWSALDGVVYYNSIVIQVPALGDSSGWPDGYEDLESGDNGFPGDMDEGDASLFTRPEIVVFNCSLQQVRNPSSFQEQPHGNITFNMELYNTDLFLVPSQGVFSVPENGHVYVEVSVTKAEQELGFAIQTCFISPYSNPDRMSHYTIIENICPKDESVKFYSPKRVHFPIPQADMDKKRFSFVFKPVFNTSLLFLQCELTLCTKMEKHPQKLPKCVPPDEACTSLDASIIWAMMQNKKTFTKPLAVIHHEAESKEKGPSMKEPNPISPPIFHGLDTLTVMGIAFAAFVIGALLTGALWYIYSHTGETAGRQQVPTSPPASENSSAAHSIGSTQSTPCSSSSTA
# Method: as §1, §2
# [4] = test system: TGF-β receptor on HEPM cells; assay: TGF-β receptor down-regulation in TGF-β1 treated HEPM cells, assessed by radioreceptor assay; type: cell-based, human; conditions: for Kd: HEPM cells treated 18 hours with 100 pM TGF-β1
# Method: as §1
# Briefly, HEPM cells were treated with 100pM TGF-β1, for 18 hours, washed with serum-free medium, and incubated in fresh serum-free medium for 60 minutes to allow for the disassociation of residually bound TGF-β1. The radioreceptor assay described in Materials and Methods was used to assess the extent of receptor down-regulation in the treated cells relative to untreated control cells. […] The combined total receptor down-regulation observed was 57%.
# [5] = 100 pM TGF-β1, 18 hours, vs control cells
substance,measurement,setting,value
"TGF-β1: Transforming growth factor-Beta type 1; two identical disulfide linked subunits having molecular weights of 13,000; recombinant material used",ED50 in stimulating the proliferation of HEPM cells (half-maximal growth stimulation),[1],0.005 nM
same,receptors occupied when full biological response is obtained,[2],20%
same,half-maximal displacement of radioligand,"[3]; unlabeled TGF-β1 vs [125I]-iodo-TGF-β1, 4° C., 3 hours",2.6 ng/mL
same,IC50,"[3]; unlabeled TGF-β1 vs [125I]-iodo-TGF-β1, 4° C., 3 hours, read-out: half-maximal displacement of radioligand / half-maximal receptor occupancy",0.1 nM
same,Kd,"[3]; read-out: kd, high-affinity (low capacity) site",0.058 nM
same,Kd,"[3]; read-out: kd, low-affinity (high capacity) site",0.898 nM
same,high affinity binding sites in treated cells,"[4]; 100 pM TGF-β1, 18 hours","14,000 sites/cell"
same,low affinity binding sites in treated cells,"[4]; 100 pM TGF-β1, 18 hours","108,800 sites/cell"
same,combined total receptor down-regulation,[4]; [5],57%
same,down-regulation of the high affinity binding sites,[4]; [5],74%
same,down-regulation of the low affinity binding sites,[4]; [5],53%
same,Kd,"[4]; read-out: kd, high affinity binding sites",0.04 nM
same,Kd,"[4]; read-out: kd, low affinity binding sites",0.974 nM
